Earlier results on one compound are cited in US20070110808A1, “Extended release osmo-microsealed formulation” (ALEMBIC LIMITED, priority 2003, published 2007).

For the data set the following is noted: compressed tablets, 75 to 350 mg/day in divided doses two or three times a day.

Each structure is given as a SMILES string.

On to `COc1ccc(C(CN(C)C)C2(O)CCCCC2)cc1.Cl` (centres unmarked) [Venlafaxine Hydrochloride, 1-[2-(dimethylamino)-1-(4-methoxyphenyl)ethyl]cyclohexanol Hydrochloride], for which the patients experiencing nausea result is listed as “about forty five” and the “patients in whom vomiting occurs” value is given as “about seventeen”.
